Measurements published in patent publication EP4722195A1, “PH-SENSITIVE CATIONIC LIPID AND LIPID NANOPARTICLES” (National University Corporation Hokkaido University, priority 2023, dated 2024).
Like-named read-outs stand apart in the source and are kept apart here.

Columns and labels:
[1] = Zeta potential of lipid nanoparticles; type: physicochemical
Experimental: (§1) The average particle size (number average value), ζ-average particle size, and polydispersity index (PdI) of the lipid nanoparticles in PBS(-) (pH 7.4), and the zeta potential in 10 mM HEPES buffer (pH 7.4) were measured using an analyzer "Zetasizer Nano ZS ZEN3600" (manufactured by Malvern) utilizing dynamic light scattering.

[2] = system: liver; test: EGFP expression in liver tissue sections of mice administered EGFP mRNA-loaded lipid nanoparticles (confocal microscopy); type: in vivo, Balb/c mice; settings: Example 27, Fig. 6; EGFP mRNA-loaded lipid nanoparticles TxT/DSPC/chol/PEG-DMG=50/3/47/1.5 (mol%); 24 hours post-administration
Experimental: Subsequently, each EGFP mRNA-loaded lipid nanoparticle was administered to Balb/c mice at a dose of 0.2 mg mRNA/kg. At 23 hours and 50 minutes post-administration, fluorescently labeled lectin (DyLight-649 Lycopersicon (Tomato) Lectin) was intravenously injected via the tail vein at 40 µg/mouse to fluorescently label vascular endothelial cells. At 24 hours after administration of the lipid nanoparticles, the mice were euthanized, and their livers were collected to prepare tissue sections. For nuclear staining, the tissue sections were immersed in a nuclear staining solution (1 µg/mL Hoechst 33342 dissolved in PBS(-)), cooled on ice, and incubated for at least 30 minutes in the dark. The stained tissue sections were then observed using a confocal laser scanning microscope. Subsequently, in the same manner as Example 26, each EGFP mRNA-loaded lipid nanoparticle was administered to Balb/c mice. At 23 hours and 50 minutes post-administration, fluorescently labeled lectin was administered. At 24 hours after administration of the lipid nanoparticles, the mice were euthanized, and their livers were collected to prepare tissue sections. Each tissue section was observed using a confocal laser scanning microscope. In the figure, the upper panels show fluorescence images of EGFP, and the lower panels show fluorescence images of vascular endothelial cells (fluorescently labeled lectin).

[3] = Encapsulation rate of lipid nanoparticles (Ribogreen); type: physicochemical
Experimental: The encapsulation rate of the lipid nanoparticles was determined by measuring the amount of encapsulated nucleic acid (mRNA) using Ribogreen (manufactured by Life Technologies), which is an RNA intercalator. The mRNA amount was quantified based on a calibration curve prepared from a series of diluted mRNA solutions at known concentrations.
Specifically, 10 mM HEPES buffer (pH 7.4), 10 w/v% Triton X-100, and Ribogreen were mixed at 978.8 µL, 20 µL, and 1.25 µL per 10 wells, respectively, to obtain a Triton(+) buffer. A Triton(-) buffer was obtained in replacing Triton X-100 with 10 mM HEPES buffer (pH 7.4). 100 µL/well of the sample was added to a black 96-well plate for fluorescence measurement, and 100 µL/well of Triton(+) buffer or Triton(-) buffer was added. After the plate was gently shaken on a shaking incubator (SI-300, manufactured by AS ONE) (700 rpm, 30 seconds), the fluorescence intensity of each well was measured using a microplate reader (VARIOSKAN LUX, manufactured by Thermo Fisher Scientific) (wavelength Ex/Em=500 nm/525 nm), and the nucleic acid encapsulation rate (%) was calculated.

[4] = Average particle size and polydispersity index of lipid nanoparticles (dynamic light scattering); type: physicochemical
Experimental: as §1

[5] = lipid nanoparticles, tns
[6] = Apparent pKa of lipid nanoparticles (TNS)
[7] = Table 3, Fluc mRNA-loaded lipid nanoparticles, TxT/DSPC/chol/PEG-DMG=50/3/47/1.5 (mol%)
[8] = Table 5, EGFP mRNA-loaded lipid nanoparticles, TxT/DSPC/chol/PEG-DMG=50/3/47/1.5 (mol%), total flow rate 3.0 mL/min
[9] = Table 4, Fluc mRNA-loaded lipid nanoparticles, TxT-5-5A14/DSPC/chol/PEG-DMG=50/3/47/1.5, SM-102, ALC-0315 or MC3/DSPC/chol/PEG-DMG=50/10/40/1.5 (mol%)
[10] = Table 7, hEPO mRNA-loaded lipid nanoparticles, TxT/DSPC/chol/PEG-DMG=50/3/47/1.5, SM-102/DSPC/chol/PEG-DMG=50/10/40/1.5 (mol%)
[11] = Table 1, Fluc mRNA-loaded lipid nanoparticles, TxT/DSPC/chol/PEG-DMG=50/15/35/1.5 (mol%)

| Compound | ζ-potential [1, 7] | ζ-potential [1, 8] | mRNA concentration [3, 7] | mRNA encapsulation rate [3, 7] | mRNA concentration [3, 8] | mRNA encapsulation rate [3, 8] | Pdl [4, 7] | number average particle size [4, 7] | ζ-average particle size [4, 7] | Pdl [4, 8] | number average particle size [4, 8] | ζ-average particle size [4, 8] | pKa [6, 7] | ζ-potential [1, 11] | mRNA concentration [3, 11] | mRNA encapsulation rate [3, 11] | Pdl [4, 11] | number average particle size [4, 11] | ζ-average particle size [4, 11] | fluorescence of EGFP in the liver tissues [2] | further results |
| --- | --- | --- | --- | --- | --- | --- | --- | --- | --- | --- | --- | --- | --- | --- | --- | --- | --- | --- | --- | --- | --- |
| CCCCCCCCC(CCCCCC)C(=O)OCCCCCCN(CCCCO)CCCCCCOC(=O)C(CCCCCC)CCCCCCCC (stereo not shown) [ALC-0315, reference compound] | – | – | – | – | – | – | – | – | – | – | – | – | – | – | – | – | – | – | – | – | ζ-potential [1, 9]: -2.1 mV; pKa [6, 9]: 6.27; mRNA concentration [3, 9]: 0.025 µg/µL; mRNA encapsulation rate [3, 9]: 98.4%; Pdl [4, 9]: 0.13; number average particle size [4, 9]: 57.0 nm; ζ-average particle size [4, 9]: 86.0 nm |
| CCCCCCCCCCCOC(=O)CCCCCN(CCO)CCCCCCCC(=O)OC(CCCCCCCC)CCCCCCCC [SM-102, reference compound] | – | – | – | – | – | – | – | – | – | – | – | – | – | – | – | – | – | – | – | – | ζ-potential [1, 9]: -11.0 mV; ζ-potential [1, 10]: 0.0 mV; mRNA concentration [3, 9]: 0.018 µg/µL; mRNA encapsulation rate [3, 9]: 99.6%; mRNA concentration [3, 10]: 0.015 µg/µL; mRNA encapsulation rate [3, 10]: 97.5%; Pdl [4, 9]: 0.21; number average particle size [4, 9]: 42.0 nm; ζ-average particle size [4, 9]: 70.4 nm; Pdl [4, 10]: 0.19; number average particle size [4, 10]: 38.6 nm; ζ-average particle size [4, 10]: 78.8 nm |
| CCCCCCCCCCN(CCCCCCCCCC)C(=O)CCC(=O)OCC(COC(=O)CCC(=O)N(CCCCCCCCCC)CCCCCCCCCC)(COC(=O)CCC(=O)N(CCCCCCCCCC)CCCCCCCCCC)NC(=O)CCN1CCCCC1 [TxT-5-4A20, 2-(((4-(didecylamino)-4-oxobutanoyl)oxy)methyl)-2-(3-(piperidin-1-yl)propanamido)propane-1,3-diyl bis(4-(didecylamino)-4-oxobutanoate)] | -3.7 mV | -7.4 mV | 0.019 µg/µL | 98.4% | 0.021 µg/µL | 96.2% | 0.08 | 98.6 nm | 136.8 nm | 0.08 | 110.1 nm | 140.9 nm | 6.49 | – | – | – | – | – | – | not detectable | – |
| CCCCN(CCCC)C(=O)CCCC(=O)OCC(COC(=O)CCCC(=O)N(CCCC)CCCC)(COC(=O)CCCC(=O)N(CCCC)CCCC)NC(=O)CCN1CCCCC1 [TxT-5-5A8, 2-(((5-(dibutylamino)-5-oxopentanoyl)oxy)methyl)-2-(3-(piperidin-1-yl)propanamido)propane-1,3-diyl bis(5-(dibutylamino)-5-oxopentanoate)] | – | – | – | – | – | – | – | – | – | – | – | – | – | -5.3 mV | 0.005 µg/µL | 23.7% | 0.19 | 61.6 nm | 92.9 nm | – | – |

Now from value to compound, other results behind:

| ζ-potential [1, 7] | ζ-potential [1, 8] | mRNA concentration [3, 7] | mRNA encapsulation rate [3, 7] | mRNA concentration [3, 8] | mRNA encapsulation rate [3, 8] | Pdl [4, 7] | number average particle size [4, 7] | ζ-average particle size [4, 7] | Pdl [4, 8] | number average particle size [4, 8] | ζ-average particle size [4, 8] | pKa [6, 7] | ζ-potential [1, 11] | mRNA concentration [3, 11] | mRNA encapsulation rate [3, 11] | Pdl [4, 11] | number average particle size [4, 11] | ζ-average particle size [4, 11] | Compound | fluorescence of EGFP in the liver tissues [2] | further results |
| --- | --- | --- | --- | --- | --- | --- | --- | --- | --- | --- | --- | --- | --- | --- | --- | --- | --- | --- | --- | --- | --- |
| -4.4 mV | -8.7 mV | 0.018 µg/µL | 98.2% | 0.022 µg/µL | 97.8% | 0.11 | 95.1 nm | 136.2 nm | 0.08 | 108.4 nm | 136.2 nm | – | – | – | – | – | – | – | 2-(6-(didecylamino)-2,6-dioxohexyl)-2-(3-(piperidin-1-yl)propanamido)propane-1,3-diyl bis(5-(didecylamino)-5-oxopentanoate) [TxT-5-5A20] | fluorescence of EGFP was observed | pKa [5]: 6.53 |
| – | – | – | – | – | – | – | – | – | – | – | – | – | -18.0 mV | 0.009 µg/µL | 73.4% | 0.30 | 110.3 nm | 255.9 nm | CCCCC(CC)CNC(=O)CCCC(=O)OCC(COC(=O)CCCC(=O)NCC(CC)CCCC)(COC(=O)CCCC(=O)NCC(CC)CCCC)NC(=O)CCN1CCCCC1 (stereo not drawn) [TxT-5-5A8β, 2-(((5-((2-ethylhexyl)amino)-5-oxopentanoyl)oxy)methyl)-2-(3-(piperidin-1-yl)propanamido)propane-1,3-diyl bis(5-((2-ethylhexyl)amino)-5-oxopentanoate)] | – | – |
| – | – | – | – | – | – | – | – | – | – | – | – | – | -36.4 mV | 0.012 µg/µL | 56.5% | 0.42 | 213.0 nm | 426.0 nm | CCCCCN(CCCCC)C(=O)CCCC(=O)OCC(COC(=O)CCCC(=O)N(CCCCC)CCCCC)(COC(=O)CCCC(=O)N(CCCCC)CCCCC)NC(=O)CCN1CCCCC1 [TxT-5-5A10, 2-(((5-(dipentylamino)-5-oxopentanoyl)oxy)methyl)-2-(3-(piperidin-1-yl)propanamido)propane-1,3-diyl bis(5-(dipentylamino)-5-oxopentanoate)] | – | pKa ([6]; Table 1, apparent pKa of Fluc mRNA-loaded lipid nanoparticles, TxT/DSPC/chol/PEG-DMG=50/15/35/1.5 (mol%)): 7.94 |
| -7.4 mV | -8.9 mV | 0.018 µg/µL | 99.2% | 0.016 µg/µL | 99.1% | 0.07 | 69.3 nm | 89.4 nm | 0.06 | 80.1 nm | 101.1 nm | 4.90 | – | – | – | – | – | – | CCCCCCCCC(CCCCCC)CNC(=O)CCCC(=O)OCC(COC(=O)CCCC(=O)NCC(CCCCCC)CCCCCCCC)(COC(=O)CCCC(=O)NCC(CCCCCC)CCCCCCCC)NC(=O)CCN1CCCCC1 (stereo not drawn) [TxT-5-5A16β, 2-(((5-((2-hexyldecyl)amino)-5-oxopentanoyl)oxy)methyl)-2-(3-(piperidin-1-yl)propanamido)propane-1,3-diyl bis(5-((2-hexyldecyl)amino)-5-oxopentanoate)] | fluorescence of EGFP was observed | – |
| -9.7 mV | -11.6 mV | 0.022 µg/µL | 98.8% | 0.024 µg/µL | 98.3% | 0.17 | 60.2 nm | 95.7 nm | 0.14 | 71.1 nm | 103.3 nm | 5.38 | – | – | – | – | – | – | CCCCCCC(CCCCCC)COC(=O)CCCC(=O)OCC(COC(=O)CCCC(=O)OCC(CCCCCC)CCCCCC)(COC(=O)CCCC(=O)OCC(CCCCCC)CCCCCC)NC(=O)CCN1CCCCC1 [TxT-5-5E14, bis(2-hexyloctyl) O,O'-(2-(((5-((2-hexyloctyl)oxy)-5-oxopentanoyl)oxy)methyl)-2-(3-(piperidin-1-yl)propanamido)propane-1,3-diyl) diglutarate] | fluorescence of EGFP was observed | – |
